Test results taken from patent US8933040B2, “Selective glycosidase inhibitors and uses thereof” (priority 2010, dated 2015).
Read-outs that look alike come from different tables or passages of the source.

Tests used:
human O-GlcNAcase = human O-GlcNAcase (Homo sapiens (Human), UniProt O60502); assay: Fluorescence-based assay for determination of KI values for inhibition of O-GlcNAcase activity; assay type: biochemical
Protocol: Assay for Determination of KI Values for Inhibition of O-GlcNAcase Activity
Experimental Procedure for Kinetic Analyses:
Enzymatic reactions were carried out in a reaction containing 50 mM NaH2PO4, 100 mM NaCl and 0.1% BSA (pH 7.0) using 2 mM 4-Methylumbelliferyl N-acetyl-β-D-glucosaminide dihydrate (Sigma M2133) dissolved in ddH2O, as a substrate. The amount of purified human O-GlcNAcase enzyme used in the reaction was 0.7 nM. Test compound of varying concentrations was added to the enzyme prior to initiation of the reaction. The reaction was performed at room temperature in a 96-well plate and was initiated with the addition of substrate. […] The slope of product production was determined for each concentration of compound tested and plotted, using standard curve fitting algorithms for sigmoidal dose response curves. The values for a four parameter logistic curve fit of the data were determined.

O-GlcNAcase = O-GlcNAcase (Rattus norvegicus (Rat), UniProt Q8VIJ5); assay: Cell-based ELISA for cellular activity of O-GlcNAcase inhibitors (O-GlcNAcylated protein, RL-2 antibody)
Chain of O-GlcNAcase (Q8VIJ5 whole entry): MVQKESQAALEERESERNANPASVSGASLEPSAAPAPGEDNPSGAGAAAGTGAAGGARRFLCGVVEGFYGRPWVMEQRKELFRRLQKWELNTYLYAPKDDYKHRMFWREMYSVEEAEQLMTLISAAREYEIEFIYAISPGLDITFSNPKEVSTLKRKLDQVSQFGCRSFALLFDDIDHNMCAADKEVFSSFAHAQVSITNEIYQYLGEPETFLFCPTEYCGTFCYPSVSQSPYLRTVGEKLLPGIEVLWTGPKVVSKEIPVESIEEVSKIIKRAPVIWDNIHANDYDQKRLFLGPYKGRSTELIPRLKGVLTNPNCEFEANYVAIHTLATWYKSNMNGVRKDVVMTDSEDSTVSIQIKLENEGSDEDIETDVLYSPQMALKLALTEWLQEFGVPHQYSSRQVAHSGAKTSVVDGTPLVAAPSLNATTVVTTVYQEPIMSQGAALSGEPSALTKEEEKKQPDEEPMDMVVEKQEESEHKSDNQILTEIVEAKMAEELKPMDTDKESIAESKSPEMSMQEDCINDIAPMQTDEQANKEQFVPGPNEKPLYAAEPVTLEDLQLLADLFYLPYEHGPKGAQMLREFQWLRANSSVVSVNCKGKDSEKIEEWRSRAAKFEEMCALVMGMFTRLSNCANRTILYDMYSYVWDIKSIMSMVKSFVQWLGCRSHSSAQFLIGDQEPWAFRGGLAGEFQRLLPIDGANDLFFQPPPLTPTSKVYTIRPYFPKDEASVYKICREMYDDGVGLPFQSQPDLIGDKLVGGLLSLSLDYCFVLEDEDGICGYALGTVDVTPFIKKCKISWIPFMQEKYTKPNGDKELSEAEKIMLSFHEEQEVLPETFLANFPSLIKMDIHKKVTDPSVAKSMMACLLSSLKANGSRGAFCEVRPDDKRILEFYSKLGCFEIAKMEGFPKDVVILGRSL
From the text: Assay for Determination of Cellular Activity for Compounds that Inhibit O-GlcNAcase Activity
Inhibition of O-GlcNAcase, which removes O-GlcNAc from cellular proteins, results in an increase in the level of O-GlcNAcylated protein in cells. An increase in O-GlcNAcylated protein can be measured by an antibody, such as RL-2, that binds to O-GlcNAcylated protein. The amount of O-GlcNAcylated protein:RL2 antibody interaction can be measured by enzyme linked immunosorbant assay (ELISA) procedures.
A variety of tissue culture cell lines, expressing endogenous levels of O-GlcNAcase, can be utilized; examples include rat PC-12, and human U-87, or SK—N—SH cells. Rat PC-12 cells were plated in 96-well plates with approximately 10,000 cells/well. Compounds to be tested were dissolved in DMSO, either 2 or 10 mM stock solution, and then diluted with DMSO and water in a two-step process using a Tecan workstation. […] If desired, the total protein concentration of samples was determined using 20 μL of the sample using the BCA method. […]
The values for a four parameter logistic curve fit of the data were determined, with the inflection point of the curve being the potency value for the test compound.

[1] = purified human O-GlcNAcase 0.7 nM, 2 mM 4-Methylumbelliferyl N-acetyl-β-D-glucosaminide, pH 7.0, Cheng-Prusoff, read-out: Fluorescence-based hOGA Ki

Chain of human O-GlcNAcase (O60502 whole entry): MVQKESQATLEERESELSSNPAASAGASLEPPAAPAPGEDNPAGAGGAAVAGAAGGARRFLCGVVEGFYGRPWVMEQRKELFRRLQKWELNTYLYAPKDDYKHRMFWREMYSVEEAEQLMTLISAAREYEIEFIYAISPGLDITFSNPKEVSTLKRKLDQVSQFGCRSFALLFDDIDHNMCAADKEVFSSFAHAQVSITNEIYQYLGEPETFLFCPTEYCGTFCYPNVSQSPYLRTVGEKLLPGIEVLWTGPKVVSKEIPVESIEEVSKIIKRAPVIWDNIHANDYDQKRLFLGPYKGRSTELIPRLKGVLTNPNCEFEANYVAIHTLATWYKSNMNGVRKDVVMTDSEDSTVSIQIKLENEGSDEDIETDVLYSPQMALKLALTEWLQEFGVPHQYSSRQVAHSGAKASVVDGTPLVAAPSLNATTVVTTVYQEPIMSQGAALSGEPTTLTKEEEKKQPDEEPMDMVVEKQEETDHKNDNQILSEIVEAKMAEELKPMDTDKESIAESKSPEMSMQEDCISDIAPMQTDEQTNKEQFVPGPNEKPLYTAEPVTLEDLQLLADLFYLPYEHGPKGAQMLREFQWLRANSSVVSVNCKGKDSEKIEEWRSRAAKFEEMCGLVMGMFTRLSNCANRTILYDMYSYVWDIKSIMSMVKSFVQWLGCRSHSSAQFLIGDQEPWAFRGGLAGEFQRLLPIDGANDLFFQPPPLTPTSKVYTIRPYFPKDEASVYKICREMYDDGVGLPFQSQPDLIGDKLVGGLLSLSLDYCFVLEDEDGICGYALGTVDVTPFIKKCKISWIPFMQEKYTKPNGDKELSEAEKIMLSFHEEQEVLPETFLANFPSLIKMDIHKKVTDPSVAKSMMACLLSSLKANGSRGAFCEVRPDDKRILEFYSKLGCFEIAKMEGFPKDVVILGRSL

Row | SMILES | Ki (human O-GlcNAcase; [1]) [nM] | other results
1 | OC[C@H]1O[C@@H]2SC(N3CC(F)C3)=N[C@@H]2[C@@H](O)[C@@H]1O [Example 3, (3aR,5R,6S,7R,7aR)-2-(3-fluoroazetidin-1-yl)-5-(hydroxymethyl)-5,6,7,7a-tetrahydro-3aH-pyrano[3,2-d]thiazole-6,7-diol] | 30 | –
2 | OC[C@H]1O[C@@H]2SC(N3CCC3)=N[C@@H]2[C@@H](O)C1O (stereo in doubt) [Example 1, (3aR,5R,6S,7R,7aR)-2-(azetidin-1-yl)-5-(hydroxymethyl)-5,6,7,7a-tetrahydro-3aH-pyrano[3,2-d]thiazole-6,7-diol] | – | Ki (human O-GlcNAcase): 3.3 nM; EC50 (O-GlcNAcase): 28 nM
3 | OC[C@H]1O[C@@H]2SC(N3CCCC3)=N[C@@H]2[C@@H](O)[C@@H]1O [Example 7, (3aR,5R,6S,7R,7aR)-5-(hydroxymethyl)-2-(pyrrolidin-1-yl)-5,6,7,7a-tetrahydro-3aH-pyrano[3,2-d]thiazole-6,7-diol] | 13 | EC50 (O-GlcNAcase; Rat PC-12 cells, 24 h treatment, increase in O-GlcNAcylated protein detected with RL-2 antibody, read-out: Cell-based ELISA EC50): 165 nM

More lines, main results first:

Row | Ki (human O-GlcNAcase; [1]) [nM] | SMILES | other results
4 | 142 | COC1CN(C2=N[C@@H]3[C@@H](O)[C@H](O)[C@@H](CO)O[C@@H]3S2)C1 [Example 5, (3aR,5R,6S,7R,7aR)-5-(hydroxymethyl)-2-(3-methoxyazetidin-1-yl)-5,6,7,7a-tetrahydro-3aH-pyrano[3,2-d]thiazole-6,7-diol] | –
5 | 289 | OC[C@H]1O[C@@H]2SC(N3CCOCC3)=N[C@@H]2[C@@H](O)[C@@H]1O [Example 14, (3aR,5R,6S,7R,7aR)-5-(hydroxymethyl)-2-morpholino-5,6,7,7a-tetrahydro-3aH-pyrano[3,2-d]thiazole-6,7-diol] | –
6 | 101 | O[C@H]1[C@H](O)[C@@H](CNC2CC2)O[C@@H]2SC(N3CCC3)=N[C@H]12 [Example 16, (3aR,5R,6S,7R,7aR)-2-(azetidin-1-yl)-5-((cyclopropylamino)methyl)-5,6,7,7a-tetrahydro-3aH-pyrano[3,2-d]thiazole-6,7-diol] | –
7 | 350 | CN(C)C(=O)OC[C@H]1O[C@@H]2SC(N3CCC3)=N[C@@H]2[C@@H](O)[C@@H]1O [Example 18, ((3aR,5R,6S,7R,7aR)-2-(azetidin-1-yl)-6,7-dihydroxy-5,6,7,7a-tetrahydro-3aH-pyrano[3,2-d]thiazol-5-yl)methyl dimethylcarbamate] | –
